“Also recorded” adds a separate entry of the source. Peptide text beside a SMILES is read from it. * marks the point of attachment. FITC = O=C1OC2(c3ccc(O)cc3Oc3cc(O)ccc32)c2ccc(NC(=S)*)cc21; Ahx = NCCCCCC(=O)O
Columns and labels:
[1] = for solubility in common solvents: water, DMSO, methanol, isopropanol, acetonitrile
From the text: Guided by TMHMM v 2 and DeepTMHMM 1.0.24, we synthesized peptides corresponding to PotH’s predicted outer loops 2 ([…]) and outer loop 3 ([…]). Fifty-three amino acid PotH's OL1 was not synthesized with predicted poor solubility. We also synthesized peptides corresponding to FeoB's predicted outer loop 1 ([…]), outer loop 2 ([…]), outer loop 3 ([…]), and outer loop 5 (ATFAA). […] For these, all amino and carboxy termini were acetylated and amidated, respectively (Supporting Information Reagents Table). All synthesized peptides were aliquoted and stored lyophilized at −80 °C in a dry environment.

[2] = tested on: Fe^2+ uptake by PA14; type: cell-based, Pseudomonas aeruginosa; details: 25 μM peptide, n = 3
Protocol: Iron depletion was induced in PA14 cells (5 × 10^9 cfu in 10 ml 10 mM Na2HPO4, 1.8 mM KH2PO4, 2.7 mM KCl, 137 mM NaCl (pH 7.2) by treatment with the chelator 1 mM 2,2′-bipyridyl at room temperature for 1 h. After washing twice with 0.9% NaCl, cells were suspended in 1 ml of 1 mM Na2HPO4, 0.18 mM KH2PO4, 0.27 mM KCl, 13.7 mM NaCl for treatment without or with 1, 10, 25, 50 or 100 μM of N-104 (or negative control N-80/C-25 or C-95) for 45 min at 35 °C, incubated at the same temperature for 15 min with 100 μM FeSO4 and 13 mM ascorbic acid, washed twice with 1 mM Na2HPO4, 0.18 mM KH2PO4, 0.27 mM KCl, and 13.7 mM NaCl, and pelleted at 12,000g. The ferrozine assay ([54]) was subsequently employed. Briefly, cells in pellets were lysed with 20 μl of 50 mM NaOH, partially neutralized with 20 μl of 10 mM HCl, subjected to iron release with 20 μl of acidified 0.29 M KMnO4 for 30 min at 80 °C, cooled to room temperature, incubated with 7 μl of 30 mM ferrozine, 1.1 μl of 180 mM neocuproine, 15 μl of 5 M ammonium acetate and 15 μl of 1 M ascorbic acid for 30 min at room temperature and then centrifuged at 21,000g for 10 min. Cellular iron uptake could then be assessed from the supernatant OD565. Single-molecule transport per cell was estimated using a standard curve.

[3] = tested on: P. aeruginosa PA14; test: SYTOX Orange PA14 membrane disruption assay; details: 25 μM peptide, PA14 10^7 cfu/ml, 1 h at 35 °C, 5 μM SYTOX Orange; positive control 70% ethanol
[4] = tested on: ^14C-spermidine uptake by PA14; type: cell-based, Pseudomonas aeruginosa; details: 25 μM peptide, n = 6
Protocol: 100 μl aliquots (0.8 × 10^8 cfu) of PA14 cell cultures in 1 mM Na2HPO4, 0.18 mM KH2PO4, 0.27 mM KCl, 13.7 mM NaCl without or with 1, 10, 25, 50 or 100 μM N-104 (or N-80/C-25 or C-95) for 45 min at 35 °C were incubated with 1 μl of 10 mM [1,4-^14C]putrescine (0.1 mCi/ml; ARC-0245–250, American Radiolabeled Chemicals) or [1,4-^14C]spermidine (0.1 mCi/ml; ARC-3138–50, American Radiolabeled Chemicals) for 15 min at 35 °C. Cell pellets were washed four times with 100 μl of 10 mM Na2HPO4, 1.8 mM KH2PO4, 2.7 mM KCl, 137 mM NaCl (pH 7.2) and then transferred to 4 ml of scintillation fluid (1200.437, PerkinElmer OptiPhase HiSafe 3) for analysis in a Beckman Coulter LS6500. Also assessed was radioactivity from the last wash. Single-molecule transportation per cell was estimated using standard curves for each radiolabeled polyamine.

[5] = tested on: P. aeruginosa PA14; type: cell-based, Pseudomonas aeruginosa
Protocol: Janelia Fluor 549-N-104 and -C-95 (each 25 μg) in 20 μl of M9 minimal salts were incubated with ∼3.75 × 10^9 cfu of pelleted PA14 cells for 1 h at 35 °C, washed four times with filtered 10 mM Na2HPO4, 1.8 mM KH2PO4, 2.7 mM KCl, 137 mM NaCl (pH 7.2), and then treated with 5 μM SYTOX Green to assess membrane integrity. Stained cells (1 μl) were immobilized on coverslip supported 1.5% agarose pads for imaging on a custom-built inverted fluorescence microscope, using 1 W/cm^2 of 561-nm laser light (Genesis MX561 MTM, Coherent) to excite Janelia Fluor 549 Maleimide and 4 mW/cm^2 of 488-nm laser light (Coherent) to excite SYTOX Green. Emitted light collected using an oil immersion objective (PLSAPO, 60×, 1.4 NA) was passed through a filter set (zt440/488/561rpc, Chroma Technology) to block excitation light with separation of Janelia Fluor 549 Maleimide and SYTOX Green emission using a diochroic beam splitter (T5g0lpxr-uf3, Chroma Technology) as collected on separate sCMOS cameras (ORCA-Flash 4.0 V2, Hamamatsu Photonics). Brightfield images were collected to obtain the total number of cells in each field of view.

[6] = tested on: P. aeruginosa PA14; test: PA14 viability (Alamar Blue, CFU) with exogenous polyamines; type: cell-based, Pseudomonas aeruginosa; details: Alamar Blue and CFU; for protection of PA14 against 5 μM N-104 killing: 5 to 50 μM exogenous polyamine, n = 3
[7] = tested on: P. aeruginosa PA14; test: Imaging flow cytometry of peptide entry; type: cell-based, Pseudomonas aeruginosa; details: 100 or 10 μM, PA14 10^6 cfu/ml, 1 h at 35 °C, trypsin EDTA to remove surface peptide, no ethanol, n = 3
Protocol: 0.5 ml of 10^6 cfu/ml PA14 cells in 1 mM Na2HPO4, 0.18 mM KH2PO4, 0.27 mM KCl, and 13.7 mM NaCl (pH 7.2) were incubated for 1 h at 35 °C with 10 or 100 μM FITC-N-104 (without, or as a positive control with 70% ethanol) or with the negative control FITC-C-95. Cells were subsequently washed in the same buffer, pelleted, treated with 100 μl of 0.25% trypsin EDTA (Gibco, 25200-056) for 5 min at 35 °C to remove surface-attached peptide, further washed and pelleted, resuspended in 100 μl of the same buffer for fixation with an equal volume of 8% formaldehyde (18,814, Polysciences Inc) and then imaged using an Amnis Imagestream X Mark II imaging flow cytometer. 500 to 1000 counts were analyzed per replicate. To ensure the exclusion of debris and out-of-focus cells, Gradient-RMS (average slope spanning three pixels in an image; 0–100) versus Area (number of pixels in an image reported in square microns; 1–200) of channel one was plotted for each experiment with more than 85% of the data falling within the cells-in-focus gate. The fluorescence intensity values of FITC-positive cells (Intensity-MC, channel 2) were analyzed using the IDEAS version 6.2 program (Amnis, Seattle WA) and plotted as histograms with a bin number of 100. FITC-positive cells were selected based on histograms generated from the positive control sample.

[8] = tested on: wild-type E. coli K-12; test: Alamar Blue viability assay of wild-type E. coli K-12; type: cell-based, Escherichia coli; details: 100 μM, wild-type E. coli K-12 10^6 cfu/ml, 37 °C, hourly, n = 3
[9] = tested on: P. aeruginosa PA14; details: 0-25 μM FITC-N-104 or 2-25 μM Janelia Fluor 549-tagged N-104, PA14 10^6 cfu/ml, 8 h
Protocol: After overnight incubation at 37 °C, plates were analyzed on a ChemiDoc XRS (Bio-Rad).

CC(=O)NCC(=O)N[C@@H](C)C(=O)N[C@@H](Cc1ccccc1)C(=O)N[C@@H](Cc1ccccc1)C(=O)NCC(=O)N[C@@H](CCC(N)=O)C(=O)NCC(=O)NCC(=O)N[C@@H](C)C(N)=O [FeoB OL3 peptide] (Ac-GAFFGQGGA-NH2)
solvents in which solubility was identified [1]: ammonia water and acetic acid
solubility in common solvents [1]: not water, DMSO, methanol, isopropanol or acetonitrile soluble

CSCC[C@H](NC(=O)CNC(=O)[C@H](CCCCN)NC(=O)CNC(=O)[C@H](C)NC(=O)[C@H](CCCCN)NC(=O)[C@H](C)NC(C)=O)C(=O)N[C@@H](Cc1c[nH]cn1)C(=O)NCC(=O)NCC(=O)N[C@H](C(=O)N1CCC[C@H]1C(=O)NCC(=O)NCC(N)=O)C(C)C [N-80/C-25, reference compound] (Ac-AKAGKGMHGGVPGG-NH2)
effect on exogenous Fe^2+ uptake [2]: partially inhibitory
membrane disruption (SYTOX Orange uptake) [3]: not membrane disruptive
effect on ^14C-spermidine uptake [4]: also inhibitory

JaneliaFluor-CEDASSDSTGADPAQEAGTSKPNEE [JanFl-C-95, Cys(N)-C-95 conjugated to Janelia Fluor 549 maleimide, reference compound]
cellular staining pattern [5]: lacked staining

CC[C@H](C)[C@H](NC(C)=O)C(=O)N[C@@H](CC(N)=O)C(=O)N[C@H](C(=O)NCC(=O)NCC(=O)N[C@@H](C)C(=O)N[C@@H](CC(C)C)C(=O)N[C@@H](CCC(N)=O)C(=O)N1CCC[C@H]1C(N)=O)[C@@H](C)CC [FeoB OL1 peptide] (Ac-INIGGALQP-NH2)
solvents in which solubility was identified [1]: formic or acetic acid
solubility in common solvents [1]: not water, DMSO, methanol, isopropanol or acetonitrile soluble

NCCCCNCCCN [spermidine]
protection of PA14 against 5 μM N-104 killing [6]: increasingly protected
concentration at which toxic to PA14 ([6]; 100-2000 µM polyamine): exceeding 100 μM

NCCCCN [Putrescine]
protection of PA14 against 5 μM N-104 killing [6]: did not offer the same benefit
toxicity to PA14 ([6]; 100-2000 µM polyamine): nor was toxic at high concentrations

CC(C)C[C@H](NC(=O)[C@H](CCCCN)NC(=O)[C@H](CCC(N)=O)NC(=O)[C@H](C)NC(=O)CCCCCNC(=S)Nc1ccc2c(c1)C(=O)OC21c2ccc(O)cc2Oc2cc(O)ccc21)C(=O)N[C@@H](CC(C)C)C(=O)N[C@@H](CCCCN)C(=O)N[C@@H](CCCCN)C(=O)N[C@@H](Cc1ccccc1)C(=O)N[C@@H](CO)C(=O)N[C@@H](CC(C)C)C(=O)N[C@@H](CC(C)C)C(=O)N[C@@H](CCCCN)C(=O)N1CCC[C@H]1C(=O)N[C@@H](Cc1c[nH]c2ccccc12)C(=O)N[C@@H](C)C(=O)O [FITC-N-104] ({FITC-Ahx}-AQKLLKKFSLLKPWA-OH)
intracellular FITC fluorescence [7]: substantial intracellular; also recorded: In contrast to FITC-C-95, substantial intracellular FITC-N-104 fluorescence was apparent at either 100 or 10 µM concentrations

CC1(C)S[C@@H]2[C@H](NC(=O)[C@H](N)c3ccccc3)C(=O)N2[C@H]1C(=O)O [ampicillin]
bacterial metabolic activity (Alamar Blue) [8]: inhibitory

JaneliaFluor-CAQKLLKKFSLLKPWA [JanFl-N-104, Cys(N)-N-104 conjugated to Janelia Fluor 549 maleimide]
effect of tagging on N-104 activity in CFU assay [9]: partially affected
cellular staining pattern [5]: peripheral internal ring

From publication PMC12147183, “Lacritin cleavage-potentiated targeting of iron - respiratory reciprocity promotes bacterial death” (The Journal of Biological Chemistry, 2025)
